Experimental data taken from patent publication US8574563B2 (Bristol-Myers Squibb Company, priority 2006, dated 2013).
Like-named read-outs stand apart in the source and are kept apart here.

System: HCV 1b-377-neo replicon cells
Experiment: HCV replicon assay, HCV 1b-377-neo replicon cells (1b FRET)
Format: cell-based, Hepatitis C virus genotype 1b
Conditions: HCV 1b-377-neo replicon cells, HCV 1b genotype, read-out: EC50 range against HCV 1b (Table 2, Range)
How it was run: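 FRET-based replicon assay in HCV 1b-377-neo cells, including a comparison line carrying the NS5A Y2065H mutation that confers resistance to a reference compound.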

Row | SMILES | EC50 (Hepatitis C virus) [nM] | EC50 [nM]
1 | O=C([C@@H]1CCCO1)N1CCC[C@H]1c1ncc(-c2ccc(-c3ccc(-c4cnc([C@@H]5CCCN5C(=O)[C@@H](c5ccccc5)N5CCCC5)[nH]4)cc3)cc2)[nH]1 [Example 95, 2-((2S)-1-((2R)-2-phenyl-2-(1-pyrrolidinyl)acetyl)-2-pyrrolidinyl)-5-(4′-(2-((2S)-1-((2S)-tetrahydro-2-furanylcarbonyl)-2-pyrrolidinyl)-1H-imidazol-5-yl)-4-biphenylyl)-1H-imidazole] | 0.001 to 0.999 | –
2 | O=C([C@@H](c1ccccc1)N1CCCC1)N1CCC[C@H]1c1ncc(-c2ccc(-c3ccc(-c4cnc([C@@H]5CCCN5C(=O)[C@@H](c5ccccc5)N5CCOCC5)[nH]4)cc3)cc2)[nH]1 [Example 96, 4-((1R)-2-oxo-1-phenyl-2-((2S)-2-(5-(4′-(2-((2S)-1-((2R)-2-phenyl-2-(pyrrolidinyl)acetyl)-2-pyrrolidinyl)-1H-imidazol-5-yl)-4-biphenylyl)-1H-imidazol-2-yl)-1-pyrrolidinyl)ethyl)morpholine] | – | 0.001 to 0.999
3 | O=C(C(c1ccccc1)N1CCC(O)CC1)N1CCC[C@H]1c1ncc(-c2ccc(-c3ccc(-c4cnc([C@@H]5CCCN5C(=O)[C@@H](c5ccccc5)N5CCCC5)[nH]4)cc3)cc2)[nH]1 (stereo partly drawn) [Example 97, 1-(2-oxo-1-phenyl-2-((2S)-2-(5-(4′-(2-((2S)-1-((2R)-2-phenyl-2-(1-pyrrolidinyl)acetyl)-2-pyrrolidinyl)-1H-imidazol-5-yl)-4-biphenylyl)-1H-imidazol-2-yl)-1-pyrrolidinyl)ethyl)-4-piperidinol] | 0.001 to 0.999 | –
4 | CN1CCN(C(C(=O)N2CCC[C@H]2c2ncc(-c3ccc(-c4ccc(-c5cnc([C@@H]6CCCN6C(=O)[C@@H](c6ccccc6)N6CCCC6)[nH]5)cc4)cc3)[nH]2)c2ccccc2)CC1 (stereo partly drawn) [Example 98, 1-methyl-4-(2-oxo-1-phenyl-2-((2S)-2-(5-(4′-(2-((2S)-1-((2R)-2-phenyl-2-(1-pyrrolidinyl)acetyl)-2-pyrrolidinyl)-1H-imidazol-5-yl)-4-biphenylyl)-1H-imidazol-2-yl)-1-pyrrolidinyl)ethyl)piperazine] | 0.001 to 0.999 | –
5 | CCN(CC)[C@@H](C(=O)N1CCC[C@H]1c1ncc(-c2ccc(-c3ccc(-c4cnc([C@@H]5CCCN5C(=O)[C@@H](c5ccccc5)N5CCCC5)[nH]4)cc3)cc2)[nH]1)c1ccccc1 [Example 99, (1R)-N,N-diethyl-2-oxo-1-phenyl-2-((2S)-2-(5-(4′-(2-((2S)-1-((2R)-2-phenyl-2-(1-pyrrolidinyl)acetyl)-2-pyrrolidinyl)-1H-imidazol-5-yl)-4-biphenylyl)-1H-imidazol-2-yl)-1-pyrrolidinyl)ethanamine] | 0.001 to 0.999 | –
6 | COC(=O)N[C@@H](C(=O)N1CCC[C@H]1c1ncc(-c2ccc(-c3ccc(-c4cnc([C@@H]5CCCN5C(=O)[C@@H](c5ccccc5)N5CCCC5)[nH]4)cc3)cc2)[nH]1)c1ccccc1 [Example 100, methyl ((1R)-2-oxo-1-phenyl-2-((2S)-2-(5-(4′-(2-((2S)-1-((2R)-2-phenyl-2-(1-pyrrolidinyl)acetyl)-2-pyrrolidinyl)-1H-imidazol-5-yl)-4-biphenylyl)-1H-imidazol-2-yl)-1-pyrrolidinyl)ethyl)carbamate] | 0.001 to 0.999 | –
7 | COC(=O)N[C@@H](C)C(=O)N1CCC[C@H]1c1ncc(-c2ccc(-c3ccc(-c4cnc([C@@H]5CCCN5C(=O)[C@@H](c5ccccc5)N5CCCC5)[nH]4)cc3)cc2)[nH]1 [Example 101, methyl ((1S)-1-methyl-2-oxo-2-((2S)-2-(5-(4′-(2-((2S)-1-((2R)-2-phenyl-2-(1-pyrrolidinyl)acetyl)-2-pyrrolidinyl)-1H-imidazol-5-yl)-4-biphenylyl)-1H-imidazol-2-yl)-1-pyrrolidinyl)ethyl)carbamate] | 0.001 to 0.999 | –
8 | COC(=O)NCC(=O)N1CCC[C@H]1c1ncc(-c2ccc(-c3ccc(-c4cnc([C@@H]5CCCN5C(=O)[C@@H](c5ccccc5)N5CCCC5)[nH]4)cc3)cc2)[nH]1 [Example 102, methyl (2-oxo-2-((2S)-2-(5-(4′-(2-((2S)-1-((2R)-2-phenyl-2-(1-pyrrolidinyl)acetyl)-2-pyrrolidinyl)-1H-imidazol-5-yl)-4-biphenylyl)-1H-imidazol-2-yl)-1-pyrrolidinyl)ethyl)carbamate] | 0.001 to 0.999 | –
9 | C[C@@H](C(=O)N1CCC[C@H]1c1ncc(-c2ccc(-c3ccc(-c4cnc([C@@H]5CCCN5C(=O)[C@@H](c5ccccc5)N5CCCC5)[nH]4)cc3)cc2)[nH]1)N(C)C [Example 103, (2S)-N,N-dimethyl-1-oxo-1-((2S)-2-(5-(4′-(2-((2S)-1-((2R)-2-phenyl-2-(1-pyrrolidinyl)acetyl)-2-pyrrolidinyl)-1H-imidazol-5-yl)-4-biphenylyl)-1H-imidazol-2-yl)-1-pyrrolidinyl)-2-propanamine] | 0.001 to 0.999 | –
10 | O=C(C(c1ccccc1)N1CCC(c2ccccc2)CC1)N1CCC[C@H]1c1ncc(-c2ccc(-c3ccc(-c4c[nH]c([C@@H]5CCCN5C(=O)[C@H]5CCCO5)n4)cc3)cc2)[nH]1 (stereo partly drawn) [Example 103-1, 1-(2-oxo-1-phenyl-2-((2S)-2-(5-(4′-(2-((2S)-1-((2R)-tetrahydro-2-furanylcarbonyl)-2-pyrrolidinyl)-1H-imidazol-4-yl)-4-biphenylyl)-1H-imidazol-2-yl)-1-pyrrolidinyl)ethyl)-4-phenylpiperidine] | 0.001 to 0.999 | –
11 | O=C(C(c1ccccc1)N1CCC(c2ccccc2)CC1)N1CCC[C@H]1c1ncc(-c2ccc(-c3ccc(-c4c[nH]c([C@@H]5CCCN5C(=O)[C@H]5CCCO5)n4)cc3)cc2)[nH]1 (stereo partly drawn) [Example 103-2, 1-(2-oxo-1-phenyl-2-((2S)-2-(5-(4′-(2-((2S)-1-((2R)-tetrahydro-2-furanylcarbonyl)-2-pyrrolidinyl)-1H-imidazol-4-yl)-4-biphenylyl)-1H-imidazol-2-yl)-1-pyrrolidinyl)ethyl)-4-phenylpiperidine] | – | 0.001 to 0.999
12 | CN1CCN(C(C(=O)N2CCC[C@H]2c2ncc(-c3ccc(-c4ccc(-c5c[nH]c([C@@H]6CCCN6C(=O)[C@H]6CCCO6)n5)cc4)cc3)[nH]2)c2ccccc2)CC1 (stereo partly drawn) [Example 103-3, 1-methyl-4-(2-oxo-1-phenyl-2-((2S)-2-(5-(4′-(2-((2S)-1-((2R)-tetrahydro-2-furanylcarbonyl)-2-pyrrolidinyl)-1H-imidazol-4-yl)-4-biphenylyl)-1H-imidazol-2-yl)-1-pyrrolidinyl)ethyl)piperazine] | 0.001 to 0.999 | –
13 | CN1CCN(C(C(=O)N2CCC[C@H]2c2ncc(-c3ccc(-c4ccc(-c5c[nH]c([C@@H]6CCCN6C(=O)[C@H]6CCCO6)n5)cc4)cc3)[nH]2)c2ccccc2)CC1 (stereo partly drawn) [Example 103-4, 1-methyl-4-(2-oxo-1-phenyl-2-((2S)-2-(5-(4′-(2-((2S)-1-((2R)-tetrahydro-2-furanylcarbonyl)-2-pyrrolidinyl)-1H-imidazol-4-yl)-4-biphenylyl)-1H-imidazol-2-yl)-1-pyrrolidinyl)ethyl)piperazine] | – | 0.001 to 0.999
14 | O=C(C(c1ccccc1)N1CCNCC1)N1CCC[C@H]1c1ncc(-c2ccc(-c3ccc(-c4c[nH]c([C@@H]5CCCN5C(=O)[C@H]5CCCO5)n4)cc3)cc2)[nH]1 (stereo partly drawn) [Example 103-7, 1-(2-oxo-1-phenyl-2-((2S)-2-(5-(4′-(2-((2S)-1-((2R)-tetrahydro-2-furanylcarbonyl)-2-pyrrolidinyl)-1H-imidazol-4-yl)-4-biphenylyl)-1H-imidazol-2-yl)-1-pyrrolidinyl)ethyl)piperazine] | 0.001 to 0.999 | –
